Measured values reported in patent US12103915B2, “TEAD inhibitors and methods of uses thereof” (Insilico Medicine IP Limited, priority 2022, dated 2024).

Key:
[1] = target: TEAD2 (Homo sapiens, UniProt Q15562); assay: Thermal shift assay TEAD2; type: binding
Procedure, shortened: (§1)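 Protein melt reactions contained TEAD1 (0.2 mg/ml final) or TEAD2 (0.08 mg/ml final) plus compound at 1 or 10 μM in 0.1% DMSO. Thermal unfolding was followed by dye fluorescence on a qPCR instrument.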

[2] = target: TEAD1 (Homo sapiens, UniProt P28347); assay: Thermal shift assay TEAD1; type: binding
Sequence of TEAD1 (P28347 whole entry, species assumed): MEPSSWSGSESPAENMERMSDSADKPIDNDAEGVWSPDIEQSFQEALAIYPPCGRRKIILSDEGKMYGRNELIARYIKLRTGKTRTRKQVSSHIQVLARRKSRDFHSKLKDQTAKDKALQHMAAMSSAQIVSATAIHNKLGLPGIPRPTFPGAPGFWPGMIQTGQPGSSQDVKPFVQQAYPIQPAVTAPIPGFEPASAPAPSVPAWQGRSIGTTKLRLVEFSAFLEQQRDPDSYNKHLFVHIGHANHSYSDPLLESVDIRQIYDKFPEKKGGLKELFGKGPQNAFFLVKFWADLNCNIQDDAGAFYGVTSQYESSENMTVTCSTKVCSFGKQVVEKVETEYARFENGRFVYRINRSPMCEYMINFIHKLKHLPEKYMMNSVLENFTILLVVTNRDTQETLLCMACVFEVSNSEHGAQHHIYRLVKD
Procedure, shortened: as §1

[3] = tested on: NCI-H226 cells; assay: Cell growth assay (CellTiter-Glo); type: cell-based, human; details: Homo sapiens, NCI-H226, 168 h, 7 days treatment, CellTiter-Glo luminescence, read-out: H226 CTG IC50
[4] = target: TEAD3 (Homo sapiens, UniProt Q99594); assay: Thermal shift assay TEAD3; type: binding
Sequence of TEAD3 (Q99594 whole entry, species assumed): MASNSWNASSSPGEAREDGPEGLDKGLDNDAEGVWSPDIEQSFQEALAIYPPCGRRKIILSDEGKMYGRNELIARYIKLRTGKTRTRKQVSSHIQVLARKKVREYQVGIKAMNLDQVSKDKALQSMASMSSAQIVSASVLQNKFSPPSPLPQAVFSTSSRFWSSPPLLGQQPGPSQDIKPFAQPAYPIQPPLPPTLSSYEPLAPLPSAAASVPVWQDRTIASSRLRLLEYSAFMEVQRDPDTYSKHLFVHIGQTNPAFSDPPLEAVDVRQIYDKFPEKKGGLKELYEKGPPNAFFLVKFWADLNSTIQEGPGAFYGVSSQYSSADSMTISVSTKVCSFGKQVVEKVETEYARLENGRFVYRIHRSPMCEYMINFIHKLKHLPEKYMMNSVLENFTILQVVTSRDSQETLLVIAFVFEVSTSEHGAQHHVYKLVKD
Procedure, shortened: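 Compounds at 1 or 10 μM (0.1% DMSO, PBS dilution) mixed with 0.1 mg/ml final TEAD3 and thermal shift dye, then run through a qPCR melt to follow protein unfolding.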

[5] = target: TEAD4 (Homo sapiens, UniProt Q15561); assay: Thermal shift assay TEAD4; type: binding
Sequence of TEAD4 (Q15561 whole entry, species assumed): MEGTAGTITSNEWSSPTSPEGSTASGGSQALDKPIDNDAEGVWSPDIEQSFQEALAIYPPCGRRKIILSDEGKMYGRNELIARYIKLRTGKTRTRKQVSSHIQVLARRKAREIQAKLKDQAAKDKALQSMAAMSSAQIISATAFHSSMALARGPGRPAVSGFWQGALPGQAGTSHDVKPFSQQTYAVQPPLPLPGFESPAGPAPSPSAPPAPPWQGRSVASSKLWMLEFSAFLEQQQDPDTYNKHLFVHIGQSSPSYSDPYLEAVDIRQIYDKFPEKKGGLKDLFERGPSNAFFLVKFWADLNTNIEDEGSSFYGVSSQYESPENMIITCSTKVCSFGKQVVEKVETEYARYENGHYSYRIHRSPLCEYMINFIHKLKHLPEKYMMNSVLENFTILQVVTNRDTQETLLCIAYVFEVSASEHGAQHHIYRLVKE
Procedure, shortened: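 Compounds tested at 1 and 10 μM (0.1% DMSO, PBS) against TEAD4 protein at 0.1 mg/ml final. Melting followed by thermal shift dye fluorescence during a qPCR instrument ramp.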

Sequence of TEAD2 (Q15562 whole entry, species assumed): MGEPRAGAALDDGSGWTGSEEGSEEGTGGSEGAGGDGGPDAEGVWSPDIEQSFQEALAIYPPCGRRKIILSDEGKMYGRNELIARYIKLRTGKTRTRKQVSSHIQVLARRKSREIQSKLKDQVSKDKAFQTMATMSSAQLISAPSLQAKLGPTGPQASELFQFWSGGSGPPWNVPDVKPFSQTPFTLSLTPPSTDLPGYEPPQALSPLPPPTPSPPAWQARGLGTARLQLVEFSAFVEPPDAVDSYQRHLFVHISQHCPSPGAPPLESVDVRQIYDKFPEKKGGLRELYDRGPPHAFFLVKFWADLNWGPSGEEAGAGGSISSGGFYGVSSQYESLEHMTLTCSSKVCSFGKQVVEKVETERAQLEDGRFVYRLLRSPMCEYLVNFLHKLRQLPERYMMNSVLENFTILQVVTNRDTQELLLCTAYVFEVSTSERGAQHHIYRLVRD

SMILES	TEAD2 ΔTm [1] [°C]	TEAD1 ΔTm [2] [°C]	IC50 [3] [nM]	TEAD3 ΔTm [4] [°C]	TEAD4 ΔTm [5] [°C]
Cn1cc2cc(Oc3ccc(C(F)(F)F)cc3)cc(C3C[C@H]3C(=O)N3C4COCC3C4)c2n1 (single isomer, unassigned) [Example 96]	13.1	10.5	< 100	12.3	12.6
Cn1cc2cc(Oc3ccc(C(F)(F)F)cc3)cc(C3C[C@H]3C(=O)N3CC4(CC(O)C4)C3)c2n1 (single isomer, unassigned) [Example 97]	9.0	9.9	< 100	7.6	10.2
Cn1cc2cc(Oc3ccc(C(F)(F)F)cc3)cc(C3C[C@H]3C(=O)N3CCC4(COC4)C3)c2n1 (single isomer, unassigned) [Example 98]	9.2	7.3	100 to 500	0	8.4
Cn1cc2cc(Oc3ccc(C(F)(F)F)cc3)cc(C3C[C@H]3C(=O)NC34CC(O)(C3)C4)c2n1 (single isomer, unassigned) [Example 102]	9.1	7.3	< 100	2.1	8.7
Cn1cc2cc(Oc3ccc(C(F)(F)F)cc3)cc(C3C[C@H]3C(=O)N3[C@@H]4CC[C@H]3C[C@@H](O)C4)c2n1 (single isomer, unassigned) [Example 104]	9.0	6.5	< 100	2.0	8.1
Cn1cc2cc(Oc3ccc(C(F)(F)F)cc3)cc(C3C[C@H]3C(=O)N3[C@@H]4CC[C@H]3C[C@H](O)C4)c2n1 (single isomer, unassigned) [Example 105]	8.2	6.8	< 100	2.2	8.1

More lines, now with the values ahead:

TEAD2 ΔTm [1] [°C]	TEAD1 ΔTm [2] [°C]	IC50 [3] [nM]	TEAD3 ΔTm [4] [°C]	TEAD4 ΔTm [5] [°C]	SMILES
9.9	6.4	< 100	3.0	9.0	Cn1cc2cc(Oc3ccc(C(F)(F)F)cc3)cc([C@@H]3C[C@H]3C(=O)N3CC4CC3CC4O)c2n1 (single isomer, unassigned) [Example 103a]
12.0	9.2	< 100	10.4	11.8	Cn1cc2cc(Oc3ccc(C(F)(F)F)cc3)cc([C@H]3C[C@@H]3C(=O)N3CC4CC3CC4O)c2n1 (single isomer, unassigned) [Example 103b]
11.1	9.2	< 100	9.4	10.7	Cn1cc2cc(Oc3ccc(C(F)(F)F)cc3)cc(C3C[C@H]3C(=O)N3C[C@H]4C[C@@H]3C[C@@H]4O)c2n1 (single isomer, unassigned) [Example 103c]
11.6	9.5	< 100	10.3	11.2	Cn1cc2cc(Oc3ccc(C(F)(F)F)cc3)cc(C3C[C@H]3C(=O)N3C[C@@H]4C[C@H]3C[C@H]4O)c2n1 (single isomer, unassigned) [Example 103d]
9.1	6.9	< 100	1.8	8.7	Cn1cc2cc(Oc3ccc(C(F)(F)F)cc3)cc(C3C[C@H]3C(=O)N3C[C@H]4C[C@@H]3C[C@H]4O)c2n1 (single isomer, unassigned) [Example 103e]
9.1	7.9	< 100	8.8	8.3	Cn1cc2nc(Oc3ccc(C(F)(F)F)cc3)cc([C@H]3C[C@@H]3C(=O)N3CC(O)C3)c2n1 (single isomer, unassigned) [Example 108b]
